This note sets out measurements from US12435060B2, “Acylamino bridged heterocyclic compound, and composition and application thereof” (BEIJING SCITECH-MQ PHARMACEUTICALS LIMITED, priority 2019, dated 2025).

One assay has as its target T1, RIPK1 (Homo sapiens, UniProt Q13546).
T1 construct: the phosphorylation of intracellular RIPK1 during the induction of programmed necrosis of HT29 cells; endogenous in cells; host or cells: HT29 cells
T1 sequence (Q13546 1-671): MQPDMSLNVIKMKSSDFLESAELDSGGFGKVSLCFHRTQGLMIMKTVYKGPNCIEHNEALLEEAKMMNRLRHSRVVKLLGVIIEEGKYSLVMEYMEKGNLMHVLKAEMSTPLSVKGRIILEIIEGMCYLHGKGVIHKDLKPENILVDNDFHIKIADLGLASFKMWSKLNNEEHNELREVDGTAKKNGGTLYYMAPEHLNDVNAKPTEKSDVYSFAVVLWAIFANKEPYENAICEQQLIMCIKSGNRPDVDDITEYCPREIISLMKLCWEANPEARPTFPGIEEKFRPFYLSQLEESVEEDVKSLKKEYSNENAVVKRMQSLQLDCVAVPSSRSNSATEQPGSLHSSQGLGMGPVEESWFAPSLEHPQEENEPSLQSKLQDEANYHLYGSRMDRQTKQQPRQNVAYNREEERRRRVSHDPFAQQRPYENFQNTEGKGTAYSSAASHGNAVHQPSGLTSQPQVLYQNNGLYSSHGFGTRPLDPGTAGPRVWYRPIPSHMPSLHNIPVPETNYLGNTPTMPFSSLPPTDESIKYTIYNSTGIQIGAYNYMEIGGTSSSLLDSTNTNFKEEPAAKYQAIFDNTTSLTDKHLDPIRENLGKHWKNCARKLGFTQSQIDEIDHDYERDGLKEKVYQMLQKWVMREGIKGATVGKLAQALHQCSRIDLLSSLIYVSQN
Kind of assay: Western blot determination of inhibition of RIPK1 phosphorylation in HT29 cells. It is filed as cell-based. The note with it: Z-VAD-FMK 20 μM, TNF-α 20 ng/mL, AT-406 100 nM, 7 hours, FIG. 1 and FIG. 2. The method, then:
Assay Example 1. Western Blot Determination of Inhibition of Compounds on RIPK1 Phosphorylation in HT29 Cells
Western blot was used to determine the effect of the test compounds on the phosphorylation of intracellular RIPK1 during the induction of programmed necrosis of HT29 cells, verifying the effect of compounds on RIPK1 phosphorylation, and initially estimating the IC50 range of compounds for RIPK1 phosphorylation.
II. Experiment Procedure • 1. […] 40-50 ug of protein sample to be determined or pre-stained two-color protein molecular weight standard were added to each well. • 4. […]
A general note: Immunoblotting shows a protein as a band on a membrane.
For `Cc1ccccc1-c1ccnc(NC(=O)c2nnc(Cc3ccccc3)[nH]2)c1` [Example 2, 5-benzyl-N-(4-(o-methylphenyl)pyridin-2-yl)-4H-1,2,4-triazole-3-carboxamide], the “inhibition of RIPK1 phosphorylation” value was “directly inhibit the phosphorylation activation of RIPK1”.

A further assay deals with HT29 cells. The assay is described as follows: Inhibition of cell necrosis (CCK8 method), induced programmed necrosis of HT29 cells. It is filed as cell-based. The conditions noted are these: Homo sapiens, HT-29; rescue from necrosis induced by TNF-α 20 ng/mL, AT-406 1 μM, Z-VAD-FMK 20 μM; 16-20 hours; CCK-8, OD 450 nm. In a few lines:
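HT29 cells in McCOY's 5A with 10% FBS were pre-treated for 30 min with compound (9 fourfold steps, 25000 to 0.38 nM final, 0.25% DMSO). Necrosis was then induced with TNF-α 20 ng/mL, AT-406 1 μM and Z-VAD-FMK 20 μM for 16-20 h. Viability was read by CCK-8 OD450, normalized between uninduced and induced wells, and IC50 was curve-fitted.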
For orientation: Tetrazolium assays rely on reduction of a dye to a coloured formazan, in cell work by metabolically active cells.
A word on the IC50: it is the concentration at which inhibition is half-maximal. A higher IC50 goes with lower potency. In turn, `Cc1ccccc1-c1ccnc(NC(=O)c2nnc(Cc3ccccc3)[nH]2)c1` [Example 2, 5-benzyl-N-(4-(o-methylphenyl)pyridin-2-yl)-4H-1,2,4-triazole-3-carboxamide] yielded an IC50 of 100 to 1000 nM.
As for `CCC(O)(CC)CCCOc1ccc(Cl)c(-c2cc(NC(=O)c3nnc(CC4CCCCC4)[nH]3)ncc2F)c1` [Example 416, N-(4-(2-chloro-5-((4-ethyl-4-hydroxyhexyl)oxy)phenyl)-5-fluoropyridin-2-yl)-5-(cyclohexylmethyl)-4H-1,2,4-triazole-3-carboxamide], the IC50 was at most 100 nM.
On to `CCc1cc(-c2ccnc(NC(=O)c3nnc(Cc4ccccc4)[nH]3)c2)c(OC)cn1` [Example 63, 5-benzyl-N-(2′-ethyl-5′-methoxy-[4,4′-bipyridin]-2-yl)-4H-1,2,4-triazole-3-carboxamide], for which the IC50 fell in the range of 1000 to 10000 nM.
In the case of `C#Cc1ccc(OCCOC(C)(C)C)cc1-c1ccnc(NC(=O)c2nnc(Cc3ccccc3)[nH]2)c1` [Example 311, 5-benzyl-N-(4-(5-(2-(tert-butoxy)ethoxy)-2-ethynylphenyl)pyridin-2-yl)-4H-1,2,4-triazole-3-carboxamide], the half-inhibitory concentration (IC50) lay within 100 to 1000 nM.
The molecule `Cc1ccc(OCC2CCOCC2)cc1-c1ccnc(NC(=O)c2nnc(Cc3ccccc3)[nH]2)c1` [Example 67, 5-benzyl-N-(4-(2-methyl-5-((tetrahydro-2H-pyran-4-yl)methoxy)phenyl)pyridin-2-yl)-4H-1,2,4-triazole-3-carboxamide] displayed an IC50 of at most 100 nM.
